IC50 data for 29 compounds are collected here from US8440710B2, “HSL inhibitors useful in the treatment of diabetes” (Hoffmann-La Roche Inc., priority 2009, dated 2013).

The test addresses T1, human HSL (Homo sapiens, UniProt Q05469).
T1 construct: generate a full length human HSL ORF with a 3′-His6 tag; made in house; host or cells: High 5 insect cells (baculovirus, pFast-BAC)
T1 sequence (Q05469 1-1076): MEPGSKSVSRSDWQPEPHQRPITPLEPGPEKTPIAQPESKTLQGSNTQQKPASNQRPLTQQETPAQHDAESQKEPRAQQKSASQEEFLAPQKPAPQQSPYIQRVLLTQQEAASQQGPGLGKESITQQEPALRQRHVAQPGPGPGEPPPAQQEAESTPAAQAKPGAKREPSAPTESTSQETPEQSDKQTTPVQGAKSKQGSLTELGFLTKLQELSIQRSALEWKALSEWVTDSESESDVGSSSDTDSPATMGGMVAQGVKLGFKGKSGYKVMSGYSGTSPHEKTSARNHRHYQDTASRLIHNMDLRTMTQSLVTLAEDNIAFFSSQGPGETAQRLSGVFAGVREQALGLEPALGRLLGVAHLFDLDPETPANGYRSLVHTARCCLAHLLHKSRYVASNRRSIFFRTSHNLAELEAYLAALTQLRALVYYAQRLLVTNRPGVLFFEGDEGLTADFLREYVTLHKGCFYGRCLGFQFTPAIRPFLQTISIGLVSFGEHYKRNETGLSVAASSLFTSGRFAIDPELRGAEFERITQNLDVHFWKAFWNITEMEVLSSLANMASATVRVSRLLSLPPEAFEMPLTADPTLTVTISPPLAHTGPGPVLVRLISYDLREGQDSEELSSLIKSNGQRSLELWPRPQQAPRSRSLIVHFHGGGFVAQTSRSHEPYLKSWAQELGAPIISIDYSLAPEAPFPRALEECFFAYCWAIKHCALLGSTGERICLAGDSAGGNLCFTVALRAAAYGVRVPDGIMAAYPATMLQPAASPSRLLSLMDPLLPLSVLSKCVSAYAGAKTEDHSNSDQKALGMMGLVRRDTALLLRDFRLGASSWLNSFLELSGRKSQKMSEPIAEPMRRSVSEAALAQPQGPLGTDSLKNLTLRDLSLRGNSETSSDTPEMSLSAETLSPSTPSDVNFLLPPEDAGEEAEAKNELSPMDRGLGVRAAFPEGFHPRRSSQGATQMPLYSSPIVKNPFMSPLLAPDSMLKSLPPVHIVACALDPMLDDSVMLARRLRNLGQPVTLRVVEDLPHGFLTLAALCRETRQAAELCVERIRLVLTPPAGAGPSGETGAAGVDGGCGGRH
The test can be described thus: Human Hormone-Sensitive Lipase (HSL) enzyme inhibition assay (colorimetric, DMPT substrate). It counts as biochemical. The settings on record: human full length HSL-His6, 2,3-dimercapto-1-propanol tributyrate substrate, 37° C. 20 minutes, absorbance at 405 nm; read-out: HSL hum IC50. In short, it runs like this:
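Full-length human HSL with C-terminal His6, expressed in baculovirus-infected High 5 cells and Ni-NTA purified, was added (15 ug/ml stock) to 1.5 mM DMPT in 100 mM MOPS pH 7.2, 0.2 mg/ml fatty acid-free BSA containing compound. After 20 min at 37 °C, DTNB with SDS/Triton X-100 was added; A405 read after 15 min at RT.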
As a reminder, the IC50 is the concentration that inhibits the measured activity by half. With `CCCC[C@]1(O)CC[C@]2(CCN(c3ccc(OCCOC)cc3)C2=O)CC1` [Example 96, (5α,8α)-8-Butyl-8-hydroxy-2-[4-(2-methoxy-ethoxy)-phenyl]-2-aza-spiro[4.5]decan-1-one], the IC50 turned out to be 60 nM.

For `O=C1N(c2ccc(OCC(F)(F)F)cc2)CC[C@]12CC[C@](O)(COc1ccccc1)CC2` [Example 239, (5α,8β)-8-Hydroxy-8-phenoxymethyl-2-[4-(2,2,2-trifluoro-ethoxy)-phenyl]-2-aza-spiro[4.5]decan-1-one], the concentration for half-maximal inhibition (IC50) came to 140 nM.

With `CC(F)(F)C(O)c1ccc(N2CC[C@]3(CC[C@@](O)(CCC(F)(F)F)CC3)C2=O)cc1` (stereo partly drawn) [Example 193, (5α,8α)-2-(4-(2,2-difluoro-1-hydroxypropyl)phenyl)-8-hydroxy-8-(3,3,3-trifluoropropyl)-2-aza-spiro[4.5]decan-1-one], the IC50 worked out at 30 nM.

Take `CC(C)[C@]1(O)CC[C@]2(CCN(c3ccc(C(O)C(F)F)cc3)C2=O)CC1` (stereo partly drawn) [Example 207, (5α,8α)-2-(4-(2,2-difluoro-1-hydroxyethyl)phenyl)-8-hydroxy-8-isopropyl-2-aza-spiro[4.5]decan-1-one]: the IC50 amounted to 90 nM.

`CCC[C@]1(O)CC[C@]2(CCN(c3ccc(C(C)(C)C)cc3)C2=O)CC1` [Example 343, (5α,8α)-2-(4-tert-Butyl-phenyl)-8-hydroxy-8-propyl-2-aza-spiro[4.5]decan-1-one]: the IC50 was found to be 20 nM.

Take `C[C@]1(O)CC[C@@]2(CCN(c3ccc(OC(F)(F)F)cc3)C2=O)CC1` [Example 58, (5α,8β)-8-Hydroxy-8-methyl-2-(4-trifluoromethoxy-phenyl)-2-aza-spiro[4.5]decan-1-one]: the IC50 worked out at 950 nM.

`CCc1ccc(N2CC[C@]3(CC[C@@](O)(COCC(F)F)CC3)C2=O)cc1` [Example 265, (5α,8α)-8-(2,2-Difluoro-ethoxymethyl)-2-(4-ethyl-phenyl)-8-hydroxy-2-aza-spiro[4.5]decan-1-one]: the IC50 is 40 nM.

As to `C=C(C)[C@]1(O)CC[C@]2(CCN(c3ccc(CCOC)cc3)C2=O)CC1` [Example 127, (5α,8α)-8-Hydroxy-8-isopropenyl-2-[4-(2-methoxy-ethyl)-phenyl]-2-aza-spiro[4.5]decan-1-one], the IC50 is 120 nM.

Turning to `CC(C)C(O)[C@H]1CC[C@]2(CCN(c3ccc(C(C)(C)C)cc3)C2=O)CC1` (some centres unmarked) [Example 356], the IC50 came out at 100 nM.

For the compound `O=C1N(CCc2ccc(F)cc2)CC[C@]12CC[C@H](O)CC2` [Example 33, (5α,8α)-2-[2-(4-Fluoro-phenyl)-ethyl]-8-hydroxy-2-aza-spiro[4.5]decan-1-one], the IC50 is 6000 nM.

With `O=C1N(c2ccc([C@@H](O)C(F)(F)F)cc2)CC[C@]12CC[C@@](O)(COCC(F)F)CC2` [Example 160, (5α,8α)-8-(2,2-Difluoro-ethoxymethyl)-8-hydroxy-2-[4-((R)-2,2,2-trifluoro-1-hydroxy-ethyl)-phenyl]-2-aza-spiro[4.5]decan-1-one], the 50% inhibitory concentration (IC50) was 300 nM.

As to `CC[C@]1(O)CC[C@]2(CCN(c3ccc(O[C@@H](C)C(F)(F)F)cc3)C2=O)CC1` [Example 165a, (5α,8α)-8-Ethyl-8-hydroxy-2-[4-((S)-2,2,2-trifluoro-1-methyl-ethoxy)-phenyl]-2-aza-spiro[4.5]decan-1-one], the half-maximal inhibitory concentration (IC50) turned out to be 20 nM.

As for `CCOC[C@]1(O)CC[C@]2(CCN(c3ccc(OC(C)C)nc3)C2=O)CC1` [Example 330, (5α,8α)-8-Ethoxymethyl-8-hydroxy-2-(6-isopropoxy-pyridin-3-yl)-2-aza-spiro[4.5]decan-1-one], the IC50 was found to be 40 nM.

`CNC(=O)C[C@]1(O)CC[C@]2(CCN(c3ccc(OCC(F)(F)F)cc3)C2=O)CC1` [Example 158, 2-((5α,8α)-8-Hydroxy-1-oxo-2-(4-(2,2,2-trifluoroethoxy)phenyl)-2-aza-spiro[4.5]decan-8-yl)-N-methylacetamide]: the half-inhibitory concentration (IC50) came to 340 nM.

Turning to `COC[C@]1(O)CC[C@]2(CCN(c3ccc(C(C)C)cc3)C2=O)CC1` [Example 218, (5α,8α)-8-hydroxy-2-(4-isopropylphenyl)-8-(methoxymethyl)-2-aza-spiro[4.5]decan-1-one], the IC50 was found to be 40 nM.

For `CCC[C@]1(O)CC[C@@]2(CCN(c3ccc(OC(F)(F)F)cc3)C2=O)CC1` [Example 56, (5α,8β)-8-Hydroxy-8-propyl-2-(4-trifluoromethoxy-phenyl)-2-aza-spiro[4.5]decan-1-one], the IC50 was 570 nM.

As to `O=C(NC1CC1)O[C@H]1CC[C@@]2(CCN(c3ccc(OC(F)(F)F)cc3)C2=O)CC1` [Example 29, Cyclopropyl-carbamic acid [(5α,8β)-1-oxo-2-(4-trifluoromethoxy-phenyl)-2-aza-spiro[4.5]dec-8-yl]ester], the half-maximal inhibitory concentration (IC50) came out at 80 nM.

For `CC(C)(C)c1ccc(N2CC[C@]3(CC[C@@H](C(O)c4ccn[nH]4)CC3)C2=O)cc1` (stereo partly drawn) [Example 363, (5α,8β)-2-(4-tert-Butyl-phenyl)-8-[hydroxy-(2H-pyrazol-3-yl)-methyl]-2-aza-spiro[4.5]decan-1-one], the IC50 came to 30 nM.

As for `CC(C)Oc1ccc(N2CC[C@]3(CC[C@@](O)(c4ccccc4)CC3)C2=O)cc1` [Example 206, (5α,8α)-8-hydroxy-2-(4-isopropoxyphenyl)-8-phenyl-2-aza-spiro[4.5]decan-1-one], the IC50 was determined as 10 nM.

Consider `O=C1N(c2ccc(OS(=O)(=O)C3CC3)cc2)CC[C@]12CC[C@@](O)(C(F)(F)F)CC2` [Example 189, 4-((5α,8α)-8-hydroxy-1-oxo-8-(trifluoromethyl)-2-aza-spiro[4.5]decan-2-yl)phenyl cyclopropanesulfonate], for which the IC50 worked out at 100 nM.

On to `COC[C@]1(O)CC[C@]2(CCN(c3ccc(OCC(F)(F)F)nc3)C2=O)CC1` [Example 110, (5α,8α)-8-Hydroxy-8-(methoxymethyl)-2-(6-(2,2,2-trifluoroethoxy)pyridin-3-yl)-2-aza-spiro[4.5]decan-1-one], for which the IC50 was 190 nM.

As to `O=C1N(c2ccc(OCC(F)(F)F)cc2)CC[C@]12CC[C@@](O)(COc1cccc(F)c1)CC2` [Example 262, (5α,8α)-8-(3-Fluoro-phenoxymethyl)-8-hydroxy-2-[4-(2,2,2-trifluoro-ethoxy)-phenyl]-2-aza-spiro[4.5]decan-1-one], the IC50 turned out to be 70 nM.

Consider `CCCS(=O)(=O)C[C@]1(O)CC[C@]2(CCN(c3ccc(OC(C)C)nc3)C2=O)CC1` [Example 335, (5α,8α)-8-Hydroxy-2-(6-isopropoxy-pyridin-3-yl)-8-(propane-1-sulfonylmethyl)-2-aza-spiro[4.5]decan-1-one], for which the IC50 stood at 50 nM.

Consider `CC(C)c1ccc(N2CC[C@]3(CC[C@@](O)(C(C)C)CC3)C2=O)cc1` [Example 203, (5α,8α)-8-hydroxy-8-isopropyl-2-(4-isopropylphenyl)-2-aza-spiro[4.5]decan-1-one], for which the IC50 was found to be 10 nM.

For `COc1ccc(CCN2CC[C@]3(CC[C@H](O)CC3)C2=O)cc1` [Example 35, (5α,8α)-8-Hydroxy-2-[2-(4-methoxy-phenyl)-ethyl]-2-aza-spiro[4.5]decan-1-one], the IC50 was 16500 nM.

As to `O=C1N(c2ccc(C3CC3)cc2)CC[C@]12CC[C@@](O)(COCC(F)(F)F)CC2` [Example 289, (5α,8α)-2-(4-Cyclopropyl-phenyl)-8-hydroxy-8-(2,2,2-trifluoro-ethoxymethyl)-2-aza-spiro[4.5]decan-1-one], the IC50 is 20 nM.

`O=C1N(c2ccc(OCC(F)(F)F)cc2)CC[C@]12CC[C@@](O)(COCc1ccccc1)CC2` [Example 242, (5α,8α)-8-Benzyloxymethyl-8-hydroxy-2-[4-(2,2,2-trifluoro-ethoxy)-phenyl]-2-aza-spiro[4.5]decan-1-one]: the IC50 was determined as 10 nM.

As for `CCc1ccc(CCN2CC[C@]3(CC[C@@](O)(COC)CC3)C2=O)cc1` [Example 373, (5α,8α)-2-[2-(4-Ethyl-phenyl)-ethyl]-8-hydroxy-8-methoxymethyl-2-aza-spiro[4.5]decan-1-one], the IC50 came to 70 nM.

Regarding `CCCC[C@]1(O)CC[C@@]2(CCN(c3ccc(OC(F)(F)F)cc3)C2=O)CC1` [Example 67, (5α,8β)-8-Butyl-8-hydroxy-2-(4-trifluoromethoxy-phenyl)-2-aza-spiro[4.5]decan-1-one], the half-inhibitory concentration (IC50) was 11100 nM.
